The source of these data is patent publication US20080182851A1, “ACETYLENE DERIVATIVES AS STEAROYL COA DESATURASE INHIBITORS” (Glenmark Pharmaceuticals S.A., priority 2006, published 2008).

Like-named read-outs stand apart in the source and are kept apart here.

The target in the test is T1, human SCD1 enzyme (Homo sapiens, UniProt O00767).
T1 sequence (O00767 1-359): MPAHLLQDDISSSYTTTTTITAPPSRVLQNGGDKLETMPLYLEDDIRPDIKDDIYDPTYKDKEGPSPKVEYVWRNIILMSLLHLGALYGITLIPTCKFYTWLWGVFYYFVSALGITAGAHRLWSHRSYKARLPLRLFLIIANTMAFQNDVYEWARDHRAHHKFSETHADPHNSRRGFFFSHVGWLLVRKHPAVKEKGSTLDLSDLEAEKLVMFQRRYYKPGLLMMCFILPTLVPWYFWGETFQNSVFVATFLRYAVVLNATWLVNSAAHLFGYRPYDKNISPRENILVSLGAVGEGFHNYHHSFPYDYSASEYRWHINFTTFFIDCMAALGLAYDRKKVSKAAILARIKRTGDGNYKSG
Put plainly: Tritiated water release assay (conversion of radiolabeled stearoyl-CoA to oleoyl-CoA). The class given is biochemical. As to conditions: 10 μM concentration of test compounds, microsomal SCD1, 3H stearoyl CoA, 37° C. 30 minutes, percent of control reaction. Here is the method: The in-vitro activity of the compounds of the present invention against stearoyl coenzyme desaturase was determined by following conversion of radiolabeled-stearoyl-CoA to oleoyl-CoA using human SCD1 enzyme using a previously published assay procedure with some modifications (Barbara R Talamo and Konrad Bloch, Analytical Biochemistry, 1969, 29, 300-304). This assay protocol is only illustrative and is not meant to limit to the scope of the present invention.
In this assay the microsomal SCD1 enzyme desaturates its substrate, Stearoyl CoA (purchased from American Radiochemicals Ltd.) which is tritiated at C9 and C10 positions. Test compounds were dissolved in dimethylsulfoxide and tested at 10 μM final concentration. Before substrate addition, the test compound or standard reference compound (conjugated linoleic acid at 100 μM final concentration) were pre-incubated in reaction buffer with the enzyme for 10 minutes at 30° C. with shaking. Reaction buffer was prepared as described in literature (Obukowicz et al. JPET, 1998, 287, 157-166) except that the MgCl2, ATP (purchased from Sigma) and CoA (purchased from Sigma) concentrations were changed to 4.9 mM, 7.2 mM and 0.54 mM respectively. The desaturation reaction was initiated by addition of 0.5 μCi of ^3H stearoyl CoA and incubated at 37° C. for 30 minutes with shaking. A control reaction was set without any test compound/reference inhibitor to capture maximum enzymatic activity in the assay. Inhibition of enzyme activity was calculated as a percent of this control reaction giving maximum catalysis and the results are given in Table 5.
Table 5: Tritiated water release assay at 10 μM substrate concentration *Conjugated Linoleic acid was used as a reference standard

In the case of `Oc1ccc(C#Cc2ccc(N3CCC(O)(Cc4cc(Cl)ccc4Cl)CC3)nn2)cc1` [Example 65, 1-{6-[(4-Hydroxyphenyl)ethynyl]pyridazin-3-yl}-4-(2,5-dichlorobenzyl)piperidin-4-ol], the inhibition at 10 µM (read-out: % Inhibition) was found to be 93%. Same read-out and setting: next, `CC(=O)Oc1ccc(C#Cc2ccc(N3CC(Oc4ccccc4F)C3)nn2)cc1` [Example 66]: 94%. The same measure, in the same setting: the result for `Oc1ccc(C#Cc2ccc(N3CC(Oc4ccccc4F)C3)nn2)cc1` [Example 67] reads 96%; that for `Fc1ccccc1OC1CCN(c2ccc(C#Cc3ccc4c(c3)OCO4)cn2)CC1` [Example 72], 38%; that for `Fc1ccccc1OC1CCN(c2ccc(C#Cc3cccnc3)cn2)CC1` [Example 73, 4-(2-Fluorophenoxy)-1-{5-[2-(3-pyridyl)-1-ethynyl]-2-pyridyl}piperidine], 37%. Take `[O-][n+]1cccc(C#Cc2ccc(N3CCC(Oc4ccccc4F)CC3)nc2)c1` [Example 74]: the inhibition at 10 µM (read-out: % Inhibition) is 44%. The same measure, in the same setting: the result for `CC(=O)Oc1ccc(C#Cc2ccc(N3CCC(Oc4ccccc4F)CC3)nn2)cc1` [Example 75, 4-[{6-[4-(2-Fluorophenoxy)piperidin-1-yl]pyridazin-3-yl}ethynyl]phenyl acetate] reads 88%; that for `Oc1ccc(C#Cc2ccc(N3CCC(Oc4ccccc4F)CC3)nn2)cc1` [Example 76, 4-(2-{6-[4-(2-Fluorophenoxy)piperidino]-3-pyridazinyl}-1-ethynyl)phenol], 100%.

Turning to `Oc1ccc(C#Cc2ccc(N3CCC(Oc4ccccc4F)CC3)nn2)cc1` [Example 77], at 10 µM the inhibition was 97%.

`Fc1ccccc1OC1CCN(c2ccc(C#Cc3ccc(OCCN4CCCCC4)cc3)nn2)CC1` [Example 78]: for the setting “read-out: % Inhibition”, the inhibition at 10 µM turned out to be 43%. The same measure, in the same setting: the result for `Fc1ccccc1OC1CCN(c2ccc(C#Cc3ccc(OCCN4CCOCC4)cc3)nn2)CC1` [Example 79] reads 37%; that for `O=C(Oc1ccc(C#Cc2ccc(N3CCC(Oc4ccccc4F)CC3)nn2)cc1)c1ccco1` [Example 80, 4-{6-[4-(2-Fluorophenoxy)piperidin-1-yl]pyridazin-3-yl}ethynylphenyl-2-furoate], 86%; that for `Oc1ccc(C#Cc2ccc(N3CCC(Oc4ccc(Br)cc4F)CC3)nn2)cc1` [Example 81], 95%.

As for `Oc1ccc(C#Cc2ccc(N3CCC(Oc4ccccc4F)CC3)nn2)cc1F` [Example 82], where the note is “read-out: % Inhibition”, the inhibition at 10 µM is 98%.

As to `COc1cc(C#Cc2ccc(N3CCC(Oc4ccccc4F)CC3)nn2)ccc1O` [Example 83, 2-Methoxy-4-{6-[4-(2-fluorophenoxy)piperidin-1-yl]pyridazin-3-yl}ethynylphenol], the inhibition at 10 µM (read-out: % Inhibition) came out at 93%. `Fc1ccccc1OC1CCN(c2ccc(C#Cc3ccc(C(F)(F)F)cc3)nn2)CC1` [Example 84, 3-[4-(2-Fluorophenoxy)piperidino]-6-[2-(4-trifluoromethylphenyl)-1-ethynyl]pyridazine]: where the note is “read-out: % Inhibition”, the inhibition at 10 µM was found to be 37%.

Regarding `CC(=O)Oc1cccc(C#Cc2ccc(N3CCC(Oc4ccccc4F)CC3)nn2)c1` [Example 85], the inhibition at 10 µM (read-out: % Inhibition) is 97%. On the same count and under the same terms, the result for `Oc1cccc(C#Cc2ccc(N3CCC(Oc4ccccc4F)CC3)nn2)c1` [Example 86, 3-(2-{6-[4-(2-Fluorophenoxy)piperidino]-3-pyridazinyl}-1-ethynyl)phenol] reads 100%. For `CC(C)(C)C(=O)Oc1cccc(C#Cc2ccc(N3CCC(Oc4ccccc4F)CC3)nn2)c1` [Example 87, 3-[{6-[4-(2-Fluorophenoxy)piperidin-1-yl]pyridazin-3-yl}ethynyl]phenyl pivalate], where the note is “read-out: % Inhibition”, the inhibition at 10 µM came out at 27%. `N#Cc1ccccc1OC1CCN(c2ccc(C#Cc3cccc(O)c3)nn2)CC1` [Example 88]: the inhibition at 10 µM (read-out: % Inhibition) stood at 95%. On the same count and under the same terms, the result for `Fc1cccc(C#Cc2ccc(N3CCC(Oc4ccccc4C(F)(F)F)CC3)nn2)c1` [Example 89, 3-[2-(3-Fluorophenyl)-1-ethynyl]-6-[4-(2-trifluoromethylphenoxy)piperidino]pyridazine] reads 82%. Same read-out and setting: next, `CC(=O)Oc1cccc(C#Cc2ccc(N3CCC(Oc4ccccc4C(F)(F)F)CC3)nn2)c1` [Example 90, 3-(2-{6-[4-(2-Trifluoromethylphenoxy)piperidino]-3-pyridazinyl}-1-ethynyl)phenyl acetate]: 95%. Same read-out and setting: next, `Oc1cccc(C#Cc2ccc(N3CCC(Oc4ccccc4C(F)(F)F)CC3)nn2)c1` [Example 91, 3-(2-{6-[4-(2-Trifluoromethylphenoxy)piperidino]-3-pyridazinyl}-1-ethynyl)phenol]: 100%; `CC(=O)Oc1ccc(C#Cc2ccc(N3CCC(Oc4cc(Cl)ccc4Cl)CC3)nn2)cc1` [Example 92, 4-[{6-[4-(2,5-Dichlorophenoxy)piperidin-1-yl]pyridazin-3-yl}ethynyl]phenyl acetate]: 97%; `Oc1ccc(C#Cc2ccc(N3CCC(Oc4cc(Cl)ccc4Cl)CC3)nn2)cc1` [Example 93, 4-[{6-[4-(2,5-Dichlorophenoxy)piperidin-1-yl]pyridazin-3-yl}ethynyl]phenol]: 96%. Take `COc1c(F)ccc(C#Cc2ccc(N3CCC(Oc4ccccc4F)CC3)nn2)c1F` [Example 94, 3-[(2,4-Difluoro-3-methoxyphenyl)ethynyl]-6-[4-(2-fluorophenoxy)piperidin-1-yl]pyridazine]: where the note is “read-out: % Inhibition”, the inhibition at 10 µM was found to be 12%. The same measure, in the same setting: the result for `[O-][n+]1cccc(C#Cc2ccc(N3CCC(Oc4ccccc4F)CC3)nn2)c1` [Example 95] reads 24%. On to `NC(=O)c1cccc(C#Cc2ccc(N3CCC(Oc4cccnc4)CC3)nn2)c1` [Example 96], for which, for the setting “read-out: % Inhibition”, the inhibition at 10 µM came to 30%. Still for that read-out and setting: next, `Cc1cccc(C#Cc2cnc(N3CCC(Oc4ccccc4F)CC3)nc2)c1` [Example 97]: 36%; `Oc1cccc(C#Cc2cnc(N3CCC(Oc4ccccc4F)CC3)nc2)c1` [Example 98]: 95%. The same measure, in the same setting: the result for `CC(=O)Oc1ccc(C#Cc2ccc(NCCOc3ccccc3F)nn2)cc1` [Example 99] reads 55%. On the same count and under the same terms, next, `Oc1ccc(C#Cc2ccc(NCCOc3ccccc3F)nn2)cc1` [Example 100]: 63%; `CC(=O)Oc1ccc(C#Cc2ccc(N3CCC(Nc4ccccc4F)CC3)nn2)cc1` [Example 101]: 82%. Consider `Oc1ccc(C#Cc2ccc(N3CCC(Nc4ccccc4F)CC3)nn2)cc1` [Example 102, 4-{6-[4-(2-Fluorophenylamino)piperidin-1-yl]pyridazin-3-yl}ethynylphenol], for which the inhibition at 10 µM (read-out: % Inhibition) amounted to 96%.

As a reminder, the inhibition is the drop in the measured response relative to a control, in per cent.
